Assay results published in PMC3626250, “Effects of Borneol on Pharmacokinetics and Tissue Distribution of Notoginsenoside R1 and Ginsenosides Rg1 and Re in Panax notoginseng in Rabbits” (Journal of Analytical Methods in Chemistry, 2013).
Like-named read-outs stand apart in the source and are kept apart here. Marks after values point to notes of the source that are not given here.

Experiments:
[1] = Pharmacokinetics study in rabbits after oral Panax notoginseng extract with or without Borneol (plasma, SPE-HPLC-MS); assay type: in vivo, New Zealand rabbits; settings: for Cmax / Tmax / CL/F / half-life / AUC(0-inf) / AUC(0-t): New Zealand, rabbit, plasma; for CL/F: read-out: CL/F; for half-life: read-out: t 1/2β; for AUC(0-inf) / AUC(0-t): po
Protocol: Liquid chromatography was carried out on an Agilent 1100 HPLC system with an auto sampler, a quaternary pump and a vacuum degasser (Waldoboro, Frankfurt, Germany). Operations were controlled by Agilent Chemstation 4.2 software (Littleforts, Philadelphia, USA). Separations were achieved on a reversed-phase HPLC column (Zorbax SB-C18 150 × 2.1 mm, 5.0 μm particle size). A solution of acetonitrile and water (V : V, 20 : 80) with 0.1% (V : V) ammonium formate was used as the mobile phase. The flow rate was set at 0.3 mL·min^−1 and the column temperature was 25°C. Under these conditions, NGR1, GRg1, and GRe in plasma samples were separated efficiently without any interferences.
MS^n detection was performed on an Agilent SL trap MS system (Waldoboro, Frankfurt, Germany). The ion source-dependent (electrospray ionization) conditions were the same for all analyses with a spraying voltage of −4500 V in the negative ion mode. The pressure of the nebulizing gas (nitrogen) was set at 35 p.s.i. The flow rate of the drying gas (nitrogen) was set at 7.0 L·min^−1 with the temperature of 325°C. The collision gas (He) for the MS^n mode at trap was set at flow of 4 (instrument unit). The voltage of the capillary was set at 4000 V, and its end plate offset was −500 V. Scan range was from 500 to 1500 m/z.
Frozen plasma and tissue samples were thawed in a water bath at 37°C and were then vortexed followed by centrifuging at 5000 r·min^−1 for 5 min. An aliquot of 1.0 mL of the supernatant from each sample was loaded onto C18 Bond Elute Solid phase extraction (SPE) cartridges (1000 mg, 1 cc reservoir, Varian, Harbor City, CA, USA) pretreated with 2.0 mL hexane, isopropanol, methanol, and water, sequentially. The SPE cartridges were then washed with 1.0 mL water, 20% methanol/water solution, 40% methanol/water solution, and 60% methanol/water solution, sequentially. Finally, analytes were eluted twice with 1.0 mL of 70% methanol/water solution. The eluant was evaporated to dryness under nitrogen. The residues were then reconstituted in 1.0 mL mobile phase. An aliquot of 10 μL was injected into the LC-MS system.
Eighteen rabbits were randomly divided into three groups of 6 subjects and were orally given 3.0 mL·kg^−1 normal saline, 3.0 mL·kg^−1 Panax notoginseng extract, and 3.0 mL·kg^−1 Panax notoginseng extract combined with Borneol, respectively. Plasma samples were collected in heparinized tubes from the central ear artery at 0.0, 5.0, 10.0, 20.0, 30.0, 45.0, 60.0, 75.0, 90.0, 120.0, 180.0, 300.0 and 480.0 min after dose. After each sampling, the same volume of 0.9% saline solution was injected from the ear vein to compensate the loss of blood. The plasma obtained was frozen at −70°C for storage and was processed prior to analysis with the proposed method as described in Section 2.6.
Statistical analysis of the biological data was performed using the Student's t-test. The drug analysis system 2.0 (DAS 2.0, T.C.M., Shanghai, China) was used to calculate the pharmacokinetic parameters, such as the area under curve (AUC), the maximum plasma concentration (C max), the time needed to reach the maximum plasma concentration (t max) and the half-life of absorption, and distribution and elimination (t 1/2Ka, t 1/2α, t 1/2β).

[2] = test system: vinblastine-selected Caco-2 cells; test: Transport studies across Caco-2 monolayers (P app, efflux ratio); assay type: in vitro ADME
Protocol: Medium was replaced every 2-3 days. […] The vinblastine-selected Caco-2 cells were cultivated in the presence of 10 nM vinblastine to induce P-glycoprotein (P-gp) expression. […] Prior to the transport study, cytotoxicity of NGR1, GRg1, GRe, and Borneol toward Caco-2 cells was determined using MTT assays.
In transport studies, vinblastine-selected Caco-2 cells were seeded on polycarbonate filter of transwells for 18–21 days before starting transport study, and the monolayers with the transepithelial electrical resistance (TEER) values greater than 300 Ωcm^2 were used. Caco-2 monolayers were rinsed twice with Hanks' balanced salt solution (HBSS) and preincubated in HBSS at 37°C for 30 min before starting experiments. To start the experiments, 500 μM of NGR1, GRg1, and GRe in final concentrations were added to the donor side with or without 200 μM Borneol and then incubated at 37°C. […] After each sampling, 0.1 mL of HBSS was added to the receiver chamber to maintain a constant volume. All the experiments were performed five times in duplicate. The collected samples were stored at −20°C until HPLC analysis. During the above transport studies, the TEER values were also monitored before and at the end of each experiment. Apparent permeability coefficients (P app) were then calculated according to the following equation: (1) Papp=(dC/dt×V)/(A×C0), where dC/dt is the rate of the test compound appearing in the receiver chamber, V is the volume of the solution in the receiver chamber, A is the cell monolayer surface area, and C 0 is the initial concentration of the test compound added in the donor chamber.
The efflux ratio (Er) was calculated using the following equation: (2) Er=Papp(basolateral-apical)/Papp(apical-basolateral).

[3] = oral 3.0 mL·kg^−1 Panax notoginseng extract
[4] = oral 3.0 mL·kg^−1 Panax notoginseng extract combined with Borneol

Structure (SMILES): CC(C)=CCC[C@](C)(O[C@@H]1O[C@H](CO)[C@@H](O)[C@H](O)[C@H]1O)[C@H]1CC[C@]2(C)[C@@H]1[C@H](O)C[C@@H]1[C@@]3(C)CC[C@H](O)C(C)(C)[C@@H]3[C@@H](O[C@@H]3O[C@H](CO)[C@@H](O)[C@H](O)[C@H]3O[C@@H]3O[C@@H](C)[C@H](O)[C@@H](O)[C@H]3O)C[C@]12C [GRe, ginsenoside Re]
- Cmax [1, 3]: 1920 ± 220 ng/mL
- Tmax [1, 3]: 45 min
- Cmax [1, 4]: 3040 ± 240 ng/mL
- Tmax [1, 4]: 45 min
- CL/F [1, 4]: 143 ± 54 mL/min/kg
- half-life [1, 4]: 69.3 ± 15.2 min
- CL/F [1, 3]: 150 ± 30 mL/min/kg
- half-life [1, 3]: 69.3 ± 5.8 min
- AUC(0-inf) [1, 3]: 8910 ng·h/mL
- AUC(0-t) [1, 3]: 7080 ng·h/mL
- AUC(0-inf) [1, 4]: 23300 ng·h/mL
- AUC(0-t) [1, 4]: 8750 ng·h/mL
- K 10 [1, 3]: 0.007 ± 0.003 min⁻¹
- K 12 [1, 3]: 0.012 ± 0.004 min⁻¹
- K 21 [1, 3]: 0.011 ± 0.005 min⁻¹
- K a [1, 3]: 0.025 ± 0.004 min⁻¹
- T lag [1, 3]: 0 ± 0 min
- V/F [1, 3]: 20.0 ± 4.7 L/kg
- t 1/2Ka [1, 3]: 27.7 ± 3.7 min
- t 1/2α [1, 3]: 35.0 ± 1.9 min
- α [1, 3]: 0.020 ± 0.004 min⁻¹
- β [1, 3]: 0.010 ± 0.002 min⁻¹
- K 10 [1, 4]: 0.005 ± 0.001 min⁻¹
- K 12 [1, 4]: 0.022 ± 0.005** min^−1
- K 21 [1, 4]: 0.011 ± 0.003 min⁻¹
- K a [1, 4]: 0.034 ± 0.003** min^−1
- T lag [1, 4]: 0.61 ± 0.47 min
- V/F [1, 4]: 31.1 ± 6.9 L/kg
- t 1/2Ka [1, 4]: 20.3 ± 4.2 min
- t 1/2α [1, 4]: 25.2 ± 2.4 min
- α [1, 4]: 0.027 ± 0.008 min⁻¹
- β [1, 4]: 0.010 ± 0.001 min⁻¹
- increase of P app (apical-to-basolateral) by Borneol ([2]; 200 μM Borneol, Caco-2): 2.3 fold
- increase of P app (basolateral-to-apical) by Borneol ([2]; 200 μM Borneol, Caco-2): 2.4 fold
- P app values ([2]; Caco-2 monolayers, without Borneol): less than 10^−6 cm/s
- substrate of P-gp ([2]; concluded from efflux ratio in vinblastine-selected Caco-2 cells): seemed not to be substrates of P-gp
